Measurements as given in patent US20090275605A1, “3,11 b-cis-Dihydrotetrabenazine for the Treatment of a Proliferative Disease or an Inflammatory Disease” (CAMBRIDGE LABORATORIES (IRELAND) LIMITED, priority 2005, published 2009).
Several values for one entry are separate records, joined by “and”; a condition that tells them apart may be missing. Equal entries are not always repeated. Entries after “also recorded” stand apart in the source; their conditions may differ.

Key:
[1] = biological target: T1, Sigma σ1 Receptor (Homo sapiens, UniProt Q99720); test: Sigma σ1 receptor radioligand binding ([3H]Haloperidol); conditions: for Percentage Inhibition of Specific Binding at Sigma-1 Receptor: 10 μM solutions, human jurkat cells, 8 nM [3H]Haloperidol
T1 construct: Source: Human jurkat cells; endogenous in cells; host or cells: Human Jurkat cells
T1 sequence (Q99720 whole entry): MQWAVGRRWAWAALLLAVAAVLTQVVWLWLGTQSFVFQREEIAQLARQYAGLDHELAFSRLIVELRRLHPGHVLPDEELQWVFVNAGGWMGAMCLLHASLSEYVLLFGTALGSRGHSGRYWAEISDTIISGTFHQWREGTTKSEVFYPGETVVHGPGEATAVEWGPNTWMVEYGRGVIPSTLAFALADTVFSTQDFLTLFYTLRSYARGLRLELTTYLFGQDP
Description: The four dihydrotetrabenazine isomers A, B, C and D subjected to specific binding assays to test their ability to bind to the sigma-1 and sigma-2 receptors. (a) Sigma σ1 Receptor: Reference: […] et al., Pharmacol. Exp. Ther., 289:251-260, (1999) Source: Human jurkat cells […] Vehicle: 1% DMSO Incubation time/Temp: 4 hours (25° C.

[2] = biological target: T2, Sigma σ2 Receptor (Rattus norvegicus, UniProt Q5U3Y7); test: Sigma σ2 receptor radioligand binding ([3H]Ifenprodil); conditions: 10 μM solutions; Wistar rat brain; 3 nM [3H]Ifenprodil
T2 construct: Source: Wistar rat brain; from tissue; host or cells: Wistar rat brain
T2 sequence (Q5U3Y7 1-176): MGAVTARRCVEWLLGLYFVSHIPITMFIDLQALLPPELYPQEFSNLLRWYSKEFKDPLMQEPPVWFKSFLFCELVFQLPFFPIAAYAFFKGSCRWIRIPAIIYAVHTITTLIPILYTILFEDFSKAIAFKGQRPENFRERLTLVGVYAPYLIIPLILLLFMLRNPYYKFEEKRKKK
Description: The four dihydrotetrabenazine isomers A, B, C and D subjected to specific binding assays to test their ability to bind to the sigma-1 and sigma-2 receptors.
Reference: Hashimoto et al., Eur. J. Pharmacol., 236:159-163, (1993) Source: Wistar rat brain
Incubation time/Temp: 60 minutes @ 37° C.
Bmax: 1.3 pmole/mg protein Specific binding: 85% Quantitation method: Radioligand binding Significance criteria: ≧50% of maximum stimulation or inhibition

[3] = test system: LPS/IFNγ stimulated human CD14+ monocytes; test: LPS/IFN stimulated production of cytokines by human monocytes (CBA cytokine analysis); assay type: cell-based
Description: The compounds of the invention were tested to determine the extent to they can modulate the production of cytokines by human monocytes. Monocytes are precursors of macrophages and are a key source of inflammatory cytokines in a wide range of disease states.
The following treatment groups were set up.
MACS Buffer: 1×PBS pH 7.2, 2 mM EDTA (Sigma), 5% human AB serum Culture Media: 500 ml RPMI 1640 (Invitrogen), 5 ml Penstrep (Sigma), 5 ml L-glutamine (Invitrogen), 10 ml HEPES (Sigma), 5% autologous plasma. Compounds: Stock at 10 mM in absolute ethanol. LPS: Salmonella abortis at 1 mg/ml (Sigma, Cat # LI 887). IFNγ: Recombinant human at 10 μg/ml (BD Pharmacia, Cat # 554617). MACS CD14 positive selection beads and LS columns (Miltenyi Biotech). CD14: FITC antibody (Miltenyi Biotech) Buffy coat obtained from Bristol National Blood Services. 1 ml of blood should give 7×10^6 total cells.
Spin buffycoat at 3500 rpm, 10 min. Remove upper plasma layer and heat-inactivate at 56° C., 30 min. Spin at 3500 rpm, 10 min to remove heat-inactivated complement proteins etc.
1. Resuspend remaining buffycoat in an equal volume of RPMI 1 640 medium and mix by inversion. 2. Prewarm histopaque (Sigma) to room temperature (RT) and add 10 ml to a universal. 3. Gently overlay with 15 ml blood/medium mix. 4. Spin at 1600 rpm for 25 minutes at RT (no brake). 5. PBMC are separated into the interface layer between the medium and the histopaque, remove cells to a 50 ml Falcon and add 10 ml medium.
6. Spin at 1800 rpm for 10 min at RT.
7. Wash ×3 with 40 ml RPMI medium and resuspend in culture medium. Isolate CD14^+ Cells by Positive Selection with CD14^+ MicroBeads Work on ice, with pre-cooled solutions. 1. Determine cell numbers (313×10×5×10^4=1.565×10^8 total cells) 2. Remove 100 μl cell sample for Fluorescence-Activated Cell-Sorting (FACS) analysis (pre-selection sample). 3. Spin at 1800 rpm for 10 minutes at 4° C. Remove supernatant. 4. Resuspend pellet in 80 μl buffer per 1×10^7 total cells (2400 μL/total cells). 5. Add 20 μl CD14 MicroBeads per 1×10^7 total cells (400 μl/total cells). 6. Mix well and incubate for 15 minutes at 4-8° C. 7. Wash cells with 1-2 ml buffer, spin at 300×g, 10 minutes at 4° C. Remove supernatant. 8. Resuspend up to 1×10^8 cells in 500 μl buffer (1 ml/total cells). Magnetic Separation with LS Column 1. Place column in magnetic field of MACS® Separator. Rinse column with 3 ml of MACS buffer. 2. Add cell suspension to column. 3. Collect unlabelled cells which pass through. Wash column with 3×3 ml buffer, allowing the column reservoir to empty between each wash. Collect total effluent (unlabelled cell fraction). 4. Remove column from separator and place on collection tube. 5. Add 5 ml buffer to column, immediately flushing out fraction with magnetically labelled cells by applying column plunger. 6. Spin cells in MACS Buffer and resuspend cell pellet in media. 7. Perform cell count on positively selected cells. • 71×20×5×10^4=7.1×10^7 cells/ml. Have 1.75 ml∴1.24×10^8 total cells. 8. Take sample to check purity by FACS add 10 μl CD14-FITC antibody and incubate, 5 minutes at 4-8° C.
Prepare compounds at 10 mM in absolute ethanol. Dilute prior to culture in media to the required concentrations.
Isolated CD14^+ monocytes were cultured in 24-well plates at 1×10^6 cells/ml/well. The monocytes were cultured in the presence of the test compounds and controls at various dilutions as set out in the table below. After overnight incubation, LPS (10 μg/ml) and IFNγ (100 ng/ml) were added to stimulate monocyte activation and elevate CB2 expression. After 48 hours, the supernatants were removed for CBA cytokine analysis.
Bring all buffers to room temperature and vortex before use 1. Make up assay buffer by adding to 450 ml distilled H2O and mixing gently. Store at 4° C. 2. Make up biotin-conjugate mix by 600 μl of each biotin-conjugates into a universal. 3. Make up bead mix by adding 300 μl of each bead set. 4. […]

[4] = test system: T cells (balb/c mouse spleen cells); test: T cell proliferation (3H-thymidine incorporation, anti-CD3 coated plates); assay type: cell-based; conditions: plates 1-3 are triplicates
Description: The compounds of the invention were tested to determine the extent to they can inhibit T cell proliferation. T cells are responsible for co-ordinating the adaptive immune response and are drivers of inflammation in a wide range of disease states.
HBSS+2% HEPES buffer (500 ml+10 ml), Alpha MEM (500 ml)+2% HEPES (10 ml)+1% Pen/strep (5 ml)+2% L-Glutamine (10 ml)+50 μM 2-ME (500 μl) and Normal Mouse serum (NMS)
1. Coat 3×96 well plates columns 1-8, rows A-H with 100 μl anti-mouse CD3 at […] in PBS. 192 well in total, therefore made up 24 mls in PBS by adding 17 μl of stock at 1.44 mg/ml. Incubate 2 hours 37° C. 2. Pooled blood from 2 balb/c mice following cardiac puncture for preparation of NMS and removed spleens into HBSS+Hepes. 3. Placed blood at 37° C. for 30 minutes to clot, spun 3,000 rpm, 10 minutes in chilspin. Removed serum, filter sterilised and kept in fridge until use. 4. Transferred spleens to petri dishes containing 10 ml HBSS, used clean sterile wire mesh placed over spleen to release cells using a glass rod. Washed cells off mesh using pasteur pipette and transferred to a 15 ml tube. Spun at 1000 rpm for 10 minutes at room temperature (RT). 5. Resuspended cells, added 0.5 ml sterile DW to lyse RBC, mixed and immediately diluted in HBSS, transfered to 50 ml tube passing through cell strainer (70 μM) to remove debris, spun as above, washed cells once more in HBSS and finally resuspended in […] alpha MEM containing supplements (as above). 6. Cell counts—252 cells×2×5×10^4=2.52×10^7 cells/ml in 4 mls=10^8 cells in total. Dilute 2 mls to 25 mls to give a cell concentration of 2×10^6 cells/ml. 7. Added 250 μl NMS to cells to give a concentration of 1%. 8. Washed anti-CD3 coated plates 3×PBS. 9. Transferred 100 μl aliquots of cells to coated wells, rows A-H columns 1-8 of 3×96-well plates. Add equal volume of compounds diluted in a 96 well plate as shown below.
Transferred 3.5 μl compound at 10 mM to 346.5 μl media (1/100), transferred 35 μl of 1/100 dilution to 315 μl media (1/10) and so on down plate to give serial 1/10 dilutions of compound. Transferred 100 μl aliquots of different compound dilutions to wells of triplicate plates containing T cells.
Culture for 48 hours, then add a drop (16 μl) of ^3H-thymidine to each well and incubate overnight at 37° C. 5% CO2. Harvest. Measure ^3H-thymidine incorporation.

COc1cc2c(cc1OC)[C@H]1C[C@H](O)[C@@H](CC(C)C)CN1CC2 (single isomer, unassigned) [Isomer B]
Percentage Inhibition of Specific Binding at Sigma-1 Receptor [1]: 82% | binding to the sigma-1 receptor (in words) ([1]; comparison of the four isomers): bind more strongly; also recorded: stronger binding | Percentage Inhibition of Specific Binding at Sigma-2 Receptor [2]: 64% | reduced production of IL-4 ([3]; LPS/IFN stimulated monocytes, 100 μM to 10 pM, FIG. 2): at the majority of concentrations tested | reduced production of IL-2 ([3]; LPS/IFN stimulated monocytes, 100 μM to 10 pM, FIG. 3): at all concentrations tested | reduced production of IL-5 ([3]; LPS/IFN stimulated monocytes, 100 μM to 10 pM, FIG. 4): at the majority of concentrations tested | reduced production of IL-10 ([3]; LPS/IFN stimulated monocytes, 100 μM to 10 pM, FIG. 5): at the majority of concentrations tested | reduced production of IL-12 ([3]; LPS/IFN stimulated monocytes, 100 μM to 10 pM, FIG. 6): at all concentrations tested | production of a range of different cytokines in monocytes ([3]; monocytes stimulated by LPS/IFN, FIGS. 1 to 6): reduced the production | T cell Proliferation (3H-thymidine incorporation) ([4]; listed as A = 100 μM, listed as RU350): 42 and 51.4 and 28 | T cell Proliferation (3H-thymidine incorporation) ([4]; listed as C = 1 μM, listed as RU350): 62557.5 and 58812.6 and 46179.1 | T cell Proliferation (3H-thymidine incorporation) ([4]; listed as D = 100 nM, listed as RU350): 63867.2 and 67792.8 and 54194.4 | T cell Proliferation (3H-thymidine incorporation) ([4]; listed as E = 10 nM, listed as RU350): 66290 and 70736.7 and 53277.2 | T cell Proliferation (3H-thymidine incorporation) ([4]; listed as F = 1 nM, listed as RU350): 49054.3 and 74224 and 58924.4 | T cell Proliferation (3H-thymidine incorporation) ([4]; listed as G = 100 pM, listed as RU350): 46056.3 and 60937.4 and 59965.8 | T cell Proliferation (3H-thymidine incorporation) ([4]; listed as H = 10 pM, listed as RU350): 52646.7 and 41897.1 and 57220.4

COc1cc2c(cc1OC)[C@@H]1C[C@@H](O)[C@H](CC(C)C)CN1CC2 (single isomer, unassigned) [Isomer A]
Percentage Inhibition of Specific Binding at Sigma-1 Receptor [1]: 48% | Percentage Inhibition of Specific Binding at Sigma-2 Receptor [2]: 64%

CCCCCCC(C)(C)c1cc(O)c2c(c1)OC(C)(C)C1CCC(=O)CC21 (stereo not shown) [Nab, Nabilone, reference compound]
T cell Proliferation (3H-thymidine incorporation) ([4]; listed as B = 10 μM): 72188.2 and 78370.5 and 40910.7 | T cell Proliferation (3H-thymidine incorporation) ([4]; listed as C = 1 μM): 48534.9 and 44235.7 and 52155.5 | T cell Proliferation (3H-thymidine incorporation) ([4]; listed as D = 100 nM): 65222 and 55348.5 and 41607.6 | T cell Proliferation (3H-thymidine incorporation) ([4]; listed as E = 10 nM): 44970.2 and 46765.1 and 36442 | T cell Proliferation (3H-thymidine incorporation) ([4]; listed as F = 1 nM): 36994.3 and 35152.2 and 37988.7 | T cell Proliferation (3H-thymidine incorporation) ([4]; listed as G = 100 pM): 37202.7 and 44920.7 and 36359.1 | T cell Proliferation (3H-thymidine incorporation) ([4]; listed as H = 10 pM): 38818.1 and 34530 and 39295.7
